Measurements: paper PMC11936910, “Population pharmacokinetics of polymyxin B in critically ill patients with carbapenem-resistant organisms infections: insights from steady-state trough and peak plasma concentration” (Frontiers in Pharmacology, 2025)
Where two headings read alike, the source gives them in different places. Bridge positions count the residues as written; N and C are the ends. Square brackets hold non-standard residues; d marks the D form. Peptide text beside a SMILES is read from it. * marks the point of attachment. X1 = CC[C@H](C)CCCCC(=O)*; Dab = NCC[C@H](N)C(=O)O

Legend:
CRO strains = assay: MICs of PMB against CRO strains; type: cell-based, carbapenem-resistant organisms
[1] = cited from earlier work
Description: The association between PMB pharmacokinetics and CrCL is still debated.

[2] = Steady-state trough and peak plasma concentrations of PMB (UPLC-MS/MS) and AUCss,24h estimation; type: in vivo, critically ill patients; details: for Cmax / AUC(0-t): human, plasma, iv; for Cmax: sample immediately after infusion, UPLC-MS/MS, read-out: Cpeak, ss; for AUC(0-t): two-point method (Ctrough,ss and Cpeak,ss, first-order elimination equation), mean ± SD, SD, read-out: Equation-based AUCss,24h
Method: A single-center prospective study was conducted in the intensive care unit (ICU) of the First Affiliated Hospital of Army Medical University from August 2021 to July 2024. Inclusion criteria: (1) patients aged ≥18 years; (2) patients receiving intravenous PMB for CRO infections confirmed by pathogen testing; (3) patients receiving at least four consecutive doses of intravenous PMB, or a loading dose followed by at least three consecutive doses. Exclusion criteria: (1) patients with missing clinical data; (2) patients hospitalized for fewer than 7 days; (3) patients receiving any form of renal replacement therapy during PMB treatment; (4) pregnant women. The research protocol was approved by the Ethics Committee of our hospital (No. (A) KY2021064).
After at least 48 h of treatment, two blood samples were collected: one immediately before the infusion and the other immediately after. The exact times of blood sampling and infusion were recorded for each patient. Plasma was separated by low-temperature, low-speed centrifugation and stored at −70°C until analysis.
PMB concentrations were analyzed using a validated ultra-performance liquid chromatography-tandem mass spectrometry (UPLC-MS/MS) method. Briefly, using polymyxin E2 as the internal standard, the assay was linear over 0.2–20.0 mg·L^-1 and 0.05–5 mg·L^-1 (r > 0.995) for PMB1 and PMB2 respectively. […] PMB concentration was calculated as follows: total concentration of PMB = [PMB1 concentration/PMB1 molecular + PMB2 concentration/PMB2 molecular]*total PMB molecular ([Liu et al., 2023]).
Data analysis was performed SPSS (version 26.0, IBM, United States) and GraphPad Prism (version 8.3.0, CA, United States). Variables with a normal distribution were expressed as mean ± standard deviation (SD), while non-normally distributed variables were reported as median (interquartile range, IQR). Categorical data were presented as percentages (%). Comparisons between two groups were conducted using the Mann-Whitney U test for non-normally distributed data and the independent t-test for normally distributed data. The estimation of AUCss,24h used the two-point method was presented in Equations 3–5 ([Liu et al., 2023]), while the estimation of AUCss,24h based on the PopPK model was obtained by dividing the total 24-hour drug dose by the individual clearance. Bland-Altman analysis was performed to evaluate the consistency of AUCss,24h estimates obtained by the two methods. AUCss,24h values were categorized as “within the therapeutic window” (50–100 mg·h·L^-1), and McNemar’s test and Kappa test were applied to assess the consistency of AUCss,24h classifications. ke=lnCpeak,ss−lnCtrough,ss/τ−Infusion (3) Csoi′ =Cpeak,ss/e^−ke⋅Infusion (4) AUCss,24h=Csoi^′−Ctrough,ss/ke×n (5) Infusion time; τ: dosing interval; Csoi' is the exploratory concentration at the start of dosing based on the one-compartment linear elimination pharmacokinetic assumption; ke: elimination rate constant; n is the number of doses within 24 h.

[3] = Population pharmacokinetic (PopPK) model of PMB, NONMEM, one-compartment; type: in vivo, critically ill patients
Description: The PopPK model was developed using nonlinear mixed-effects modeling software: NONMEM (version 7.5.1, ICON plc, United States), Pirana (version 23.1.2, Certara L.P., United States), and PsN (version 5.3.0, https://uupharmacometrics.github.io/PsN/), with the first-order conditional estimation method including interaction (FOCE-I). The base model was selected based on goodness-of-fit (GOF) diagnostic plots, relative standard error (RSE) of parameters, and the objective function value (OFV). Spearman correlation was used to evaluate the relationships between covariates and individual empirical Bayesian estimates (EBEs) of PK parameters before covariate selection. A decrease in OFV >3.84 (P < 0.05, χ^2, df = 1) for forward addition and an increase >6.63 (P < 0.01, χ^2, df = 1) for backward elimination were the criteria for covariate inclusion. GOF plots were used to assess the model. To assess the stability of the final model and the precision of the PK parameters, a bootstrap method with 1,000 resampling iterations was performed. The final model was then subjected to 1,000 simulations for visual predictive checks (VPC) to evaluate the model’s predictive ability and accuracy. The accuracy and predictive performance of the model were further assessed using normalized prediction distribution errors (NPDE) plots. Statistical validation of the model was conducted using the t-test, Fisher’s test, Shapiro-Wilk test, and the Global test.
The patients were divided into a modeling group and a validation group based on the chronological order of enrollment and in accordance with the inclusion and exclusion criteria. External validation of the final model was performed using the validation group data. The mean prediction error (MPE), mean absolute prediction error (MAPE) (Equations 1, 2), F20 (20% of the absolute value of the prediction error), and F30 were calculated by comparing the predicted values with the observed values. Model performance was considered acceptable if MPE% ≤ ±20%, MAPE% ≤ 30%, F20 ≥ 35%, and F30 ≥ 50% ([Mao et al., 2018]). MPE%=1/N∑i=1Npredi−obsi/obsi×100 (1) MAPE%=1/N∑i=1Npredi−obsi/obsi×100 (2) predi denotes the i-th predicted value, and obsi its corresponding observed value.
A one-compartment model with first-order elimination best fit the population data of PMB in critically ill patients. Inter-individual variability was described using an exponential random effects model, while residual variability was described using both proportional and additive error models.

[4] = cited from earlier work; remark: listed apart in the source
Description: In contrast, the lower CL observed in previous studies by Li et al. (1.18 L·h^-1) and Yu et al. (1.59 L·h^-1) may reflect differences in renal function and patient characteristics. Our study reported a value of 18 L, which ...

[5] = bootstrap median, 1,000 resampling iterations
[6] = CRO-infected patients, covariate TBW, ref Manchandani et al., 2018
[7] = CRO-infected patients, ref Kubin et al., 2018
[8] = Critically ill patients, covariate CrCL, ref Yu et al., 2020
[9] = Cystic fibrosis patients, covariate TBW, ref Crass et al., 2021
[10] = Kidney transplant patients, covariate CrCL, ref Li et al., 2021

SMILES: CC[C@H](C)CCCCC(=O)N[C@@H](CCN)C(=O)N[C@H](C(=O)N[C@@H](CCN)C(=O)N[C@H]1CCNC(=O)[C@H]([C@@H](C)O)NC(=O)[C@H](CCN)NC(=O)[C@H](CCN)NC(=O)[C@H](CC(C)C)NC(=O)[C@@H](Cc2ccccc2)NC(=O)[C@H](CCN)NC1=O)[C@@H](C)O [PMB, polymyxin B] (X1-[Dab]T[Dab][Dab][Dab][dF]L[Dab][Dab]T; lactam 4-C)
- Share with MIC of PMB 16 mg·L^-1 (CRO strains; modeling group, 3/80): 3.75%
- Share with MIC of PMB 2 mg L^-1 (CRO strains; modeling group, 8/80): 10%
- Share with MIC of PMB 1 mg·L^-1 (CRO strains; modeling group, 11/80): 13.75%
- Share with MIC of PMB 2 mg·L^-1 (CRO strains; validation group, 2/15): 13.33%
- Share with MIC of PMB 1 mg·L^-1 (CRO strains; validation group, 4/15): 26.67%
- Share with MIC of PMB ≤0.5 mg·L^-1 (CRO strains; validation group, 9/15): 60%
- Urinary recovery ([1]; 17 patients, ref Sandri et al., 2013b): 0.98% to 17.40
- Urinary recovery rate ([1]; four patients, ref Yu et al., 2020): 23.56%
- AUCss,24h within the range of 50–100, share of values ([2]; estimated by the PPK model, 55/106 values (modeling and validation group)): 51.89%
- AUCss,24h within the range of 50–100, share of values ([2]; estimated using the two-point method, 49/106 values): 46.23%
- Cmax ([2]; modeling set (n = 80), median (IQR)): 5730 ng/mL
- AUC(0-t) ([2]; modeling set): 102000 ± 57900 ng·h/mL
- Cmax ([2]; validation set (n = 15), median (IQR)): 4340 ng/mL
- AUC(0-t) ([2]; validation set): 90500 ± 43400 ng·h/mL
- Model-based AUCss,24h ([2]; modeling set, total 24-hour dose divided by individual clearance from PopPK model, median (IQR)): 74.07 (55.81–94.07) mg·h/L
- CL [3, 5]: 2.02 L/h
- V [3, 5]: 17.98 L
- V ([3]; final model estimate, modeling group n = 80): 18 L
- CL ([3]; final model estimate, modeling group n = 80, 184 samples): 2.03 L/h
- CL [4, 6]: 2.50 L/h
- Vd [4, 6]: 34.30 L
- CL [4, 7]: 2.37 L/h
- Vd [4, 7]: 34.40 L
- CL [4, 8]: 1.59 L/h
- Vd [4, 8]: 20.50 L
- CL [4, 9]: 2.09 L/h
- Vd [4, 9]: 12.70 L
- CL [4, 10]: 1.18 L/h
- Vd [4, 10]: 12.90 L
